{"source": "ChEMBL document CHEMBL4354793", "about": "“Current and emerging therapeutic targets of alzheimer's disease for the design of multi-target directed ligands” (Medchemcomm, 2019)", "assay_type_in_all_cases": "functional", "key": {"Rattus norvegicus [1]": {"system": "Rattus norvegicus", "test": "In vivo inhibition of AChE in po dosed rat brain relative to control"}, "Mus musculus [2]": {"system": "Mus musculus", "test": "In vivo inhibition of AChE in po dosed mouse brain relative to control"}, "Oryctolagus cuniculus [3]": {"system": "Oryctolagus cuniculus", "test": "In vivo inhibition of AChE in po dosed rabbit brain relative to control"}, "Mus musculus [4]": {"system": "Mus musculus", "test": "In vivo inhibition of MAO-B in po dosed mouse brain relative to control"}, "Oryctolagus cuniculus [5]": {"system": "Oryctolagus cuniculus", "test": "In vivo inhibition of MAO-B in po dosed rabbit brain relative to control"}, "Rattus norvegicus [6]": {"system": "Rattus norvegicus", "test": "In vivo inhibition of MAO-B in po dosed rat brain relative to control"}}}
{"molecule": "C#CCN[C@@H]1CCc2ccc(OC(=O)N(C)CC)cc21", "note": "[LADOSTIGIL]", "values": [{"measurement": "inhibition (INH)", "setting": "Rattus norvegicus [1]", "value": "25 - 40%"}, {"measurement": "inhibition (INH)", "setting": "Mus musculus [2]", "value": "25 - 40%"}, {"measurement": "inhibition (INH)", "setting": "Oryctolagus cuniculus [3]", "value": "25 - 40%"}, {"measurement": "inhibition (INH)", "setting": "Mus musculus [4]", "value": "70 - 90%"}, {"measurement": "inhibition (INH)", "setting": "Oryctolagus cuniculus [5]", "value": "70 - 90%"}, {"measurement": "inhibition (INH)", "setting": "Rattus norvegicus [6]", "value": "70 - 90%"}]}
